According to patent US8742167B2, “Therapeutic formulations based on asiatic acid and selected salts thereof” (Shanghai Institute of Pharmaceutical Industry, priority 2008, dated 2014):
Converted amounts (≈) assume the structure as drawn. “And” between values parts separate entries of the source, which are not always exact repeats. Equal entries are not always repeated. “Also recorded” adds a separate entry of the source. Where two headings read alike, the source gives them in different places. Marks after values point to notes of the source that are not given here.

Legend:
[1] = tested on: pulmonary fibrosis induced by bleomycin in rats; experiment: Pathological analysis of lung (HE staining; collagen fiber and elastic fiber dual staining); assay type: in vivo, SD rats; conditions: for collagen fiber and elastic fiber staining / lung pathology, HE staining: administration on the next day after establishing model
Protocol: (§1) Male SD rats, body weight 250-300 g. The animals were anesthetized with 3% seconal, laid flat and fixed onto the operating table. The necks of the animals were disinfected with alcohol and cut to expose tracheae. A needle was inserted via the space between tracheal rings centripetally, and 5 mg/kg of bleomycin was injected. The rats were kept upright and rotated, in order to keep the solution uniformly distributed in the lungs. Then the incisions were sutured.
(§2) After the rats regained consciousness, they were randomly grouped. The animals were divided into (i) a group receiving administration on the next day after establishing the model and (ii) a group receiving administration at 7 days after the model was established. Included were 27, 9, and 3 mg/kg p.o.×28 d asiatic acid groups, 0.6 mg/kg p.o.×28 d dexamethasone group, 36 mg/kg p.o.×28 d asiaticoside group, model group, and blank group. Normal saline was administered for the model and blank groups. On the 28th day after asiatic acid and asiaticoside administration, survival and weight ratio of lungs were measured; pathological examination and serological examination were performed.
The lung tissues were fixed in 10% formalin for 1 week. […] The thickness of sections was […]. Routine hematoxylin-eosin (HE) staining was performed. Dual special staining of collagen fibers and elastic fibers were conducted in order to detect the degree of fibrosis. The staining of the two groups of sections was observed and the results were as follows.

Type III collagen = Type III collagen content, bleomycin rat model; assay type: in vivo, SD rats; conditions: for Type III collagen content X ± SD: treatment starting on Day 7
Protocol: as §1, §2

[2] = tested on: bleomycin-induced pulmonary fibrosis in rats; experiment: Mortality during experiment days 7-28, bleomycin-induced pulmonary fibrosis in rats; assay type: in vivo, SD rats
Protocol: as §1, §2

[3] = tested on: bleomycin-induced pulmonary fibrosis in rats; experiment: Lung weight index of bleomycin-induced pulmonary fibrosis in rats; assay type: in vivo, SD rats; conditions: for lung weight ratio (%): (lung weight/body weight)x100%
Protocol: as §1, §2
Effect of on lung weight index of bleomycin-induced pulmonary fibrosis in rats treated with asiatic acid Body weight and lung weight were measured after the rats were sacrificed. Lung weight ratio=(lung weight/body weight)×100%.

TFG-β = experiment: Serological test (ELISA kit) of TFG-β in rats of bleomycin-induced pulmonary fibrosis; assay type: in vivo, SD rats; conditions: for TFG-β (2nd day) X ± SD / TFG-β (7th day) X ± SD: serum; for TFG-β (2nd day) X ± SD: dosing from 2nd day; for TFG-β (7th day) X ± SD: dosing from 7th day; for serum levels of TGF-β (words): treatment initiated one day or seven days after bleomycin
Protocol: TFG-β Kit, Human 96T ELISA kit imported by Shanghai Jingmei
as §1, §2
(§3) Serum samples were prepared according to a standard protocol (centrifuged 3000 rpm, 10 minutes after collection) and were stored at −20° C. Testing was conducted in accordance with kit instructions.

[4] = Solubility in water and methanol (saturated solutions, HPLC); assay type: physicochemical
Protocol: Approximately 5 mg of asiatic acid were transferred into a 25 mL volumetric flask, and 1 mL, of methanol was added and mixed well, until the acid had dissolved in the methanol. The volumetric flask then was brought to volume with mobile phase and mixed well. [table] Saturated solutions obtained from starting material and salt in methanol and water were filtered and diluted accordingly with mobile phase. No dilution was performed for asiatic acid in water. Samples were prepared in triplicate except for the sodium salt prepared in methanol, for which two preparations were done.

Hydroxyproline = experiment: Measured value of hydroxyproline in experiment of asiatic acid antagonizing fibrosis; assay type: in vivo, SD rats; parameters: Measured Value of Hydroxyproline (on 2nd day), single animals / Measured Value of Hydroxyproline (on 2nd day), X / Measured Value of Hydroxyproline (on 7th day), single animals / Measured Value of Hydroxyproline (on 7th day), X: unit not given here; conditions: for Measured Value of Hydroxyproline (on 2nd day), X / Measured Value of Hydroxyproline (on 7th day), X: group mean; for Measured Value of Hydroxyproline (on 2nd day), single animals / Measured Value of Hydroxyproline (on 7th day), single animals: individual rats 1-10
Protocol: as §1, §2

TNF-α = experiment: Serological test (ELISA kit) of TNF-α in rats of bleomycin-induced pulmonary fibrosis; assay type: in vivo, SD rats; conditions: for TNF-α (2nd day) X ± SD / TNF-α (7th day) X ± SD: serum; for TNF-α (2nd day) X ± SD: dosing from 2nd day; for TNF-α (7th day) X ± SD: dosing from 7th day; for serum levels of TNF-α (words): treatment initiated one day or seven days after bleomycin
Protocol: TNF-α Kit, Human 96T ELISA kit imported by Shanghai Jingmei
as §1, §2, §3

[5] = asiatic acid high dose (27 mg/kg)
[6] = asiatic acid low dose (3 mg/kg)
[7] = asiatic acid middle dose (9 mg/kg)

C[C@H]1[C@H](C)CC[C@]2(C(=O)O)CC[C@]3(C)C(=CC[C@@H]4[C@@]5(C)C[C@@H](O)[C@H](O)[C@@](C)(CO)[C@@H]5CC[C@]43C)[C@H]12 [Asiatic acid, asiatic acid]
collagen fiber and elastic fiber staining [1, 5]: only a little fibroplastic proliferation
lung pathology, HE staining [1, 5]: mild infiltration of inflammatory cells
efficacy by pathology compared with asiaticoside group ([1]; asiatic acid high-dose group): better than in the asiaticoside group
lung pathology, HE staining [1, 6]: mild inflammation and alveolitis
collagen fiber and elastic fiber staining [1, 7]: significantly milder than that of the model group
lung pathology, HE staining [1, 7]: mild infiltration of inflammatory cells
bleomycin-induced lung fibrosis by lung histopathology ([1]; overall statement): effective against bleomycin-induced pulmonary fibrosis, on a dose-response basis; also recorded: reduces the extent of bleomycin-induced lung fibrosis
lung fibrosis by histopathology compared with dexamethasone ([1]; treatment initiated seven days after bleomycin insult): more effective than dexamethasone
Type III collagen content X ± SD (Type III collagen; asiatic acid Medium dose (9 mg/kg)): 0.515 ± 0.398
Type III collagen content X ± SD (Type III collagen; [5]): 0.387 ± 0.287
Type III collagen content X ± SD (Type III collagen; [6]): 0.764 ± 0.826
serum levels of type III collagen (Type III collagen; overall statement): significantly decrease bleomycin-induced fibrosis
remaining samples at the end of study ([2]; Asiatic acid-H (27 mg/kg p.o. x 28 d), dosing started on 2nd day, 13 on day 7): 13
number of deaths ([2]; Asiatic acid-H (27 mg/kg p.o. x 28 d), dosing started on 2nd day, days 7-28): 0
number of deaths ([2]; Asiatic acid-H (27 mg/kg p.o. x 28 d), dosing started on 7th day): 0
remaining samples at the end of study ([2]; Asiatic acid-H (27 mg/kg p.o. x 28 d), dosing started on 7th day, 13 in the group): 13
remaining samples at the end of study ([2]; Asiatic acid-L (3 mg/kg p.o. x 28 d), dosing started on 2nd day, 13 on day 7): 11
number of deaths ([2]; Asiatic acid-L (3 mg/kg p.o. x 28 d), dosing started on 2nd day, days 7-28): 2
number of deaths ([2]; Asiatic acid-L (3 mg/kg p.o. x 28 d), dosing started on 7th day): 1
remaining samples at the end of study ([2]; Asiatic acid-L (3 mg/kg p.o. x 28 d), dosing started on 7th day, 13 in the group): 12
remaining samples at the end of study ([2]; Asiatic acid-M (9 mg/kg p.o. x 28 d), dosing started on 2nd day, 14 on day 7): 13
number of deaths ([2]; Asiatic acid-M (9 mg/kg p.o. x 28 d), dosing started on 2nd day, days 7-28): 1
number of deaths ([2]; Asiatic acid-M (9 mg/kg p.o. x 28 d), dosing started on 7th day): 1
remaining samples at the end of study ([2]; Asiatic acid-M (9 mg/kg p.o. x 28 d), dosing started on 7th day, 13 in the group): 12
survival / bleomycin-induced death ([2]; rats treated with bleomycin, treatment initiated one day or seven days after bleomycin): largely prevented bleomycin-induced death; also recorded: significantly enhance survival
lung weight ratio (%) ([3]; asiatic acid 3 mg/kg, started 7 day after model established): 0.83** %
lung weight ratio (%) ([3]; asiatic acid 3 mg/kg, started from the second day): 0.84** %
lung weight ratio (%) ([3]; asiatic acid 9 mg/kg, started 7 day after model established): 0.82** %
lung weight ratio (%) ([3]; asiatic acid 9 mg/kg, started from the second day): 0.78** %
lung weight ratio (%) ([3]; asiatic acid 27 mg/kg, started 7 day after model established): 0.73** %
lung weight ratio (%) ([3]; asiatic acid 27 mg/kg, started from the second day): 0.69** %
lung weight (g) X ± SD ([3]; asiatic acid 3 mg/kg, 28-day administration started 7 day after model established): 2.64 ± 0.33 g
lung weight (g) X ± SD ([3]; asiatic acid 3 mg/kg, 28-day administration started from the second day): 2.74 ± 0.54 g
lung weight (g) X ± SD ([3]; asiatic acid 9 mg/kg, 28-day administration started 7 day after model established): 2.69 ± 0.53 g
lung weight (g) X ± SD ([3]; asiatic acid 9 mg/kg, 28-day administration started from the second day): 2.49 ± 0.40 g
lung weight (g) X ± SD ([3]; asiatic acid 27 mg/kg, 28-day administration started 7 day after model established): 2.52 ± 0.25 g
lung weight (g) X ± SD ([3]; asiatic acid 27 mg/kg, 28-day administration started from the second day): 2.41 ± 0.38 g
lung weight to body weight ratio ([3]; starting on 2nd or 7th day, compared with the model group): significantly lower; also recorded: significantly decrease bleomycin-induced lung fibrosis
TFG-β (2nd day) X ± SD (TFG-β; asiatic acid 3 mg/kg): 0.726 ± 0.220 OD value
TFG-β (7th day) X ± SD (TFG-β; asiatic acid 3 mg/kg): 1.494 ± 0.273 OD value
TFG-β (2nd day) X ± SD (TFG-β; asiatic acid 9 mg/kg): 0.642 ± 0.139 OD value
TFG-β (7th day) X ± SD (TFG-β; asiatic acid 9 mg/kg): 1.165 ± 0.412 OD value
TFG-β (2nd day) X ± SD (TFG-β; asiatic acid 27 mg/kg): 0.653 ± 0.157 OD value
TFG-β (7th day) X ± SD (TFG-β; asiatic acid 27 mg/kg): 1.049 ± 0.363 OD value
serum levels of TGF-β (words) (TFG-β): significantly reduces
serum levels of TGF-β (words) (TFG-β; listed as asiatic acid): can lower
Solubility ([4]; MeOH, single preparations (inj 1A-1C), listed as Asiatic acid raw material): 37200 µg/mL and 34870 µg/mL
solubility in methanol ([4]; methanol): good solubility
Solubility ([4]; methanol, organic solvent or mixture, thermodynamic from solid, MeOH, single preparations (inj 1A-1C), read-out: Solubility): 27200 µg/mL (≈ 55700 µM)
Solubility ([4]; water, thermodynamic from solid, water, read-out: Solubility in water): 30 µg/mL (≈ 61.4 µM)
Solubility ([4]; water, thermodynamic from solid, water, single preparations (inj 1A-1C), read-out: Solubility): 30 µg/mL (≈ 61.4 µM)
Solubility ([4]; water, single preparations (inj 1A-1C), listed as Asiatic acid raw material): 40 µg/mL and 20 µg/mL
Measured Value of Hydroxyproline (on 2nd day), X (Hydroxyproline; asiatic acid 3 mg/kg): 24.31
Measured Value of Hydroxyproline (on 7th day), X (Hydroxyproline; asiatic acid 3 mg/kg): 25.65
Measured Value of Hydroxyproline (on 2nd day), single animals (Hydroxyproline; asiatic acid 3 mg/kg): 19.57 and 28.21 and 24.03 and 19.66 and 25.61 and 26.55 and 26.34 and 24.09 and 19.07 and 29.99
Measured Value of Hydroxyproline (on 7th day), single animals (Hydroxyproline; asiatic acid 3 mg/kg): 20.31 and 27.14 and 28.27 and 26.14 and 28.01 and 29.34 and 25.07 and 25.36 and 25.47 and 21.37
Measured Value of Hydroxyproline (on 2nd day), X (Hydroxyproline; asiatic acid 9 mg/kg): 22.94
Measured Value of Hydroxyproline (on 7th day), X (Hydroxyproline; asiatic acid 9 mg/kg): 25.21
Measured Value of Hydroxyproline (on 2nd day), single animals (Hydroxyproline; asiatic acid 9 mg/kg): 28.26 and 15.05 and 29.14 and 28.98 and 27.69 and 19.03 and 19.46 and 18.22 and 24.01 and 19.56
Measured Value of Hydroxyproline (on 7th day), single animals (Hydroxyproline; asiatic acid 9 mg/kg): 28.19 and 24.39 (2×) and 27.98 and 28.36 and 19.36 and 24.64 and 25.66 and 29.47 and 19.66
Measured Value of Hydroxyproline (on 2nd day), X (Hydroxyproline; asiatic acid 27 mg/kg): 21.65
Measured Value of Hydroxyproline (on 7th day), X (Hydroxyproline; asiatic acid 27 mg/kg): 23.40
Measured Value of Hydroxyproline (on 2nd day), single animals (Hydroxyproline; asiatic acid 27 mg/kg): 17.64 and 25.36 and 25.18 and 24.36 and 20.19 and 18.6 and 19.36 and 20.97 and 27.69 and 17.11
Measured Value of Hydroxyproline (on 7th day), single animals (Hydroxyproline; asiatic acid 27 mg/kg): 19.68 and 19.47 and 20.14 and 24.36 (2×) and 27.14 and 25.1 and 26.38 and 27.66 and 19.74
serum levels of hydroxyproline (Hydroxyproline; overall statement): significantly decrease bleomycin-induced fibrosis
TNF-α (2nd day) X ± SD (TNF-α; asiatic acid 3 mg/kg): 0.055 ± 0.008 OD value
TNF-α (7th day) X ± SD (TNF-α; asiatic acid 3 mg/kg): 0.084 ± 0.018 OD value
TNF-α (2nd day) X ± SD (TNF-α; asiatic acid 9 mg/kg): 0.056 ± 0.016 OD value
TNF-α (7th day) X ± SD (TNF-α; asiatic acid 9 mg/kg): 0.096 ± 0.036 OD value
TNF-α (2nd day) X ± SD (TNF-α; asiatic acid 27 mg/kg): 0.050 ± 0.007 OD value
TNF-α (7th day) X ± SD (TNF-α; asiatic acid 27 mg/kg): 0.047 ± 0.013 OD value
serum levels of TNF-α (words) (TNF-α): significantly reduces
serum levels of TNF-α (words) (TNF-α; listed as asiatic acid): can lower
